Test results taken from patent US6730792B2, “β3 adrenergic agonists” (Eli Lilly and Company, priority 2000, dated 2004).

Target: T1, human β3 adrenergic receptor (Homo sapiens, UniProt P13945)
T1 construct: expressed in transfected cells; host or cells: DXB-11 Chinese hamster ovary (CHO) cell line, stably transfected (phd expression vector)
Test: whole cell receptor coupled c-AMP assay, human β3 receptor in CHO cells (EC50, Emax relative to isoproterenol)
Type: cell-based
Settings: % intrinsic activity relative to isoproterenol maximal response, c-AMP in transfected CHO cells; for Emax (%) ± SEM: average of at least 3 runs; for Emax: SEM in brackets
How it was run: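 Stably transfected DXB-11 CHO cells (20,000/well) were exposed to compound for 20 min at 37 °C in HBSS/HEPES buffer with 1 mM IBMX, pH 7.4. cAMP was measured by SPA. EC50 came from a four-parameter logistic fit, and Emax is the maximal response as a percentage of isoproterenol's.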

T1 sequence (P13945 whole entry): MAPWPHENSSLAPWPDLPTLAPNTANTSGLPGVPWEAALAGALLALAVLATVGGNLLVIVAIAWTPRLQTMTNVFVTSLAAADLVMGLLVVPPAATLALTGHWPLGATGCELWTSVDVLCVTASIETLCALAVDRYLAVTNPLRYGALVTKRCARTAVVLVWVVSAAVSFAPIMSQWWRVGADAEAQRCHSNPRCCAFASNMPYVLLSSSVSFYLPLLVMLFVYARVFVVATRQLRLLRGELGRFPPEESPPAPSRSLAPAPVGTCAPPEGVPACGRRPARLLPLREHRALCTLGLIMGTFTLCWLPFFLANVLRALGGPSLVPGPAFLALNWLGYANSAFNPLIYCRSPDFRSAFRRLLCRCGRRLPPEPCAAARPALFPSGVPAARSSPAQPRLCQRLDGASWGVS

| SMILES | Emax (%) ± SEM | Emax |
| --- | --- | --- |
| CC(C)(Cc1ccc(Oc2ncccc2C(N)=O)cc1)NC[C@H](O)COc1ccccc1-c1ccco1.Cl [Example 420] | 78.9 ± 2.3% | – |
| CC(C)(Cc1ccc(Oc2cccnc2C#N)cc1)NC[C@H](O)COc1ccccc1-c1ccsc1.Cl [Example 421] | 53.4 ± 6.9% | – |
| Cc1ccc(-c2ccccc2OC[C@@H](O)CNC(C)(C)Cc2ccc(Oc3cccnc3C#N)cc2)s1.Cl [Example 422] | 60.1 ± 8.2% | – |
| CC(=O)c1ccc(-c2ccccc2OC[C@@H](O)CNC(C)(C)Cc2ccc(Oc3cccnc3C#N)cc2)s1.Cl [Example 424] | 71.2 ± 7.9% | – |
| CC(C)(Cc1ccc(Oc2cccnc2C#N)cc1)NC[C@H](O)COc1ccccc1-c1ccco1.Cl [Example 425] | 67.1 ± 3.0% | – |
| CC(C)(Cc1ccc(Oc2ccc(C#N)cn2)cc1)NC[C@H](O)COc1c(F)cccc1-c1ccsc1.Cl [Example 426] | 61.0 ± 7.1% | – |
| Cc1ccc(-c2cccc(F)c2OC[C@@H](O)CNC(C)(C)Cc2ccc(Oc3ccc(C#N)cn3)cc2)s1.Cl [Example 427] | 72.4 ± 6.9% | – |
| CC(C)(Cc1ccc(Oc2ccc(C#N)cn2)cc1)NC[C@H](O)COc1c(F)cccc1-c1ccc(Cl)s1.Cl [Example 428] | 75.5 ± 6.9% | – |
| CC(=O)c1ccc(-c2cccc(F)c2OC[C@@H](O)CNC(C)(C)Cc2ccc(Oc3ccc(C#N)cn3)cc2)s1.O=C(O)C(F)(F)F [Example 429] | 84.7 ± 12.3% | – |
| CC(C)(Cc1ccc(Oc2ccc(C#N)cn2)cc1)NC[C@H](O)COc1c(F)cccc1-c1ccco1.Cl [Example 430] | 77.4 ± 9.0% | – |
| CC(C)(Cc1ccc(Oc2ncccc2C#N)cc1)NC[C@H](O)COc1c(F)cccc1-c1ccsc1.Cl [Example 436] | 57.5 ± 12.0% | – |
| Cc1ccc(-c2cccc(F)c2OC[C@@H](O)CNC(C)(C)Cc2ccc(Oc3ncccc3C#N)cc2)s1.Cl [Example 437] | 72.0 ± 10.5% | – |
| CC(C)(Cc1ccc(Oc2ncccc2C#N)cc1)NC[C@H](O)COc1c(F)cccc1-c1ccc(Cl)s1.Cl [Example 438] | 64.3 ± 12.4% | – |
| CC(=O)c1ccc(-c2cccc(F)c2OC[C@@H](O)CNC(C)(C)Cc2ccc(Oc3ncccc3C#N)cc2)s1.O=C(O)C(F)(F)F [Example 439] | 75.0 ± 9.6% | – |
| CC(C)(Cc1ccc(Oc2ncccc2C#N)cc1)NC[C@H](O)COc1c(F)cccc1-c1ccco1.Cl [Example 440] | 73.4 ± 4.4% | – |
| CC(C)(Cc1ccc(Oc2ncccc2C(N)=O)cc1)NC[C@H](O)COc1ccccc1-c1ccsc1.Cl [Example 446] | 64.0 ± 6.0% | – |
| CC(C)(Cc1ccc(Oc2cccnc2C(N)=O)cc1)NC[C@H](O)COc1ccccc1-c1ccc(C(=O)O)s1 [Example 448] | – | 79.9% |
| CC(C)(Cc1ccc(Oc2ncccc2C(N)=O)cc1)NC[C@H](O)COc1ccccc1-c1ccc(C(=O)O)s1 [Example 449] | – | 74.2% |
| CC(C)(Cc1ccc(Oc2ncccc2C(N)=O)cc1)NC[C@H](O)COc1ccccc1-c1ccc(C(N)=O)s1 [Example 450] | – | 67.4% |
